# From patent US5760235A, “Anticoagulant peptide derivatives and pharmaceutical compositions containing the same as well as a process for preparation thereof” (Gyogyszerkutato Intezet Kft., priority 1992, dated 1998)
# Assays:
# [1] = system: citrated plasma; test: In vivo antithrombin effect in rabbits: citrated plasma thrombin time (TT)
# Procedure: (§1) The in vivo antithrombin effect of the compounds of general formula (I) was treated in rabbits by a known method [Bagdy et al: Thromb Haemost 67, 357-365 (1992)]. The compounds were applied in a dose of 0.5-3.0 mg/kg s.c. and 5-15 mg/kg p.o. The effect was already detectable 15-30 minutes after drug administration, peak effect was attained after 90-120 minutes but the therapeutic effect was dose dependently maintained during 3 to longer than 5 hours.
# (§2) The in vivo antithrombin effect of 3-cyclohexyl-D-lactyl-L-prolyl-L-arginine aldehyde hemisulfate (Example 7.) is presented in detail in Tables 2 and 3. The compound was administered in doses of 10 and 15 mg/kg, resp., p.o. and the blood samples taken from the ear-vein of the animals were assayed in every 30 minutes. The whole blood clotting time (WBCT) and the inhibition of whole blood platelet aggregation induced by thrombin (IWBA) were determined. Furthermore the citrated plasma thrombin time (TT) of the blood sample and the activated partial thromboplastin time (APTT) were measured, too. The WBCT and APTT values are presented in Table 2 and the TT and IWBA values in Table 3.
# [2] = system: whole blood platelet aggregation induced by thrombin; test: In vivo antithrombin effect in rabbits: inhibition of whole blood platelet aggregation induced by thrombin (IWBA)
# Procedure: as §1, §2
# [3] = system: fibrinolysis induced by tissue plasminogen activator; test: Fibrinolysis induced by tissue plasminogen activator, thromboelastogram; type: biochemical
# Text: The compounds of the general formula (I) inhibit clot formation without interfering with the natural lysis of blood clots in the body, e.g. fibrinolysis. […] Thromboelastography. In: Bang N. U., F. K. Beller, E. Deutsch, E. F. Mamman eds. Thrombosis and Bleeding Disorders. Theory and Methods. Academic Press, London, 1971: 70-76].
# [4] = system: citrated blood plasma; test: In vitro thrombin time (TT), citrated blood plasma; type: biochemical, human; parameters: unit not given here
# Procedure: (§3) The antithrombin activity of the compounds of general formula (I) was determined by the usual method [Bagdy et al.: Thromb Haemostas 67, 325-330 (1992)] by measuring whole blood clotting time (WBCT), thrombin time (TT) and activated partial thromboplastin time (APTT). The in vitro activity of some compounds of the invention assayed on native human blood (non-anticoagulated clotting) (WBCT) and on citrated blood plasma (TT and APTT) is presented in Table 1.
# (§4) ^2 WBCT = whole blood clotting time, TT = thrombin time, APTT =
# (§5) activated partial thromboplastin time parameter. The figures represent
# (§6) concentrations of the compounds required to double the clotting time of
# (§7) native whole human blood or of citrated blood plasma.
# [5] = system: native whole human blood; test: In vitro whole blood clotting time (WBCT), native human blood; type: biochemical; parameters: unit not given here
# Procedure: as §3, §4, §5, §6, §7
# [6] = system: citrated plasma; test: In vivo antithrombin effect in rabbits: activated partial thromboplastin time (APTT)
# Procedure: as §1, §2
# [7] = system: citrated blood plasma; test: In vitro activated partial thromboplastin time (APTT), citrated blood plasma; type: biochemical, human; parameters: unit not given here
# Procedure: as §3, §4, §5, §6, §7
# [8] = system: whole blood clotting; test: In vivo antithrombin effect in rabbits: whole blood clotting time (WBCT)
# Procedure: as §1, §2
compound,measurement,setting,value
"N=C(N)NCCC[C@@H](C=O)NC(=O)[C@@H]1CCCN1C(=O)[C@H](O)CC1CCCCC1.N=C(N)NCCC[C@@H](C=O)NC(=O)[C@@H]1CCCN1C(=O)[C@H](O)CC1CCCCC1.O=S(=O)(O)O [Example 7, 3-Cyclohexyl-D-lactyl-L-prolyl-L-arginine aldehyde hemisulfate]",TT,"[1]; 10 mg/kg p.o., time 0 min",18.4 ± 2.1 s
same,TT,"[1]; 10 mg/kg p.o., time 30 min",317.1 ± 123.0 s
same,TT,"[1]; 10 mg/kg p.o., time 60 min",416.0 ± 107.2 s
same,TT,"[1]; 10 mg/kg p.o., time 90 min",444.7 ± 108.6 s
same,TT,"[1]; 10 mg/kg p.o., time 120 min",264.6 ± 101.3 s
same,TT,"[1]; 10 mg/kg p.o., time 150 min",201.1 ± 109.9 s
same,TT,"[1]; 10 mg/kg p.o., time 180 min",182.7 ± 113.6 s
same,TT,"[1]; 10 mg/kg p.o., time 210 min",123.0 ± 65.3 s
same,TT,"[1]; 10 mg/kg p.o., time 240 min",141.5 ± 81.3 s
same,TT,"[1]; 10 mg/kg p.o., time 270 min",65.4 ± 25.7 s
same,TT,"[1]; 10 mg/kg p.o., time 300 min",41.8 ± 11.4 s
same,TT,"[1]; 15 mg/kg p.o., time 0 min",18.9 ± 2.1 s
same,TT,"[1]; 15 mg/kg p.o., time 30 min",371.2 ± 142.3 s
same,TT,"[1]; 15 mg/kg p.o., time 60 min",528.3 ± 72.9 s
same,TT,"[1]; 15 mg/kg p.o., time 90 min",578.8 ± 21.5 s
same,TT,"[1]; 15 mg/kg p.o., time 120 min",> 600.0 ± 0 s
same,TT,"[1]; 15 mg/kg p.o., time 150 min",549.6 ± 34.0 s
same,TT,"[1]; 15 mg/kg p.o., time 180 min",380.7 ± 116.0 s
same,TT,"[1]; 15 mg/kg p.o., time 210 min",342.1 ± 121.2 s
same,TT,"[1]; 15 mg/kg p.o., time 240 min",340.9 ± 137.0 s
same,TT,"[1]; 15 mg/kg p.o., time 270 min",376.4 ± 153.0 s
same,TT,"[1]; 15 mg/kg p.o., time 300 min",261.0 ± 140.8 s
same,IWBA,"[2]; 10 mg/kg p.o., time 30 min",89.4 ± 7.6%
same,IWBA,"[2]; 10 mg/kg p.o., time 60 min",95.8 ± 6.9%
same,IWBA,"[2]; 10 mg/kg p.o., time 90 min",81.6 ± 8.2%
same,IWBA,"[2]; 10 mg/kg p.o., time 120 min",94.0 ± 3.2%
same,IWBA,"[2]; 10 mg/kg p.o., time 150 min",71.4 ± 13.8%
same,IWBA,"[2]; 10 mg/kg p.o., time 180 min",72.4 ± 19.2%
same,IWBA,"[2]; 10 mg/kg p.o., time 210 min",54.4 ± 21.0%
same,IWBA,"[2]; 10 mg/kg p.o., time 240 min",50.6 ± 17.7%
same,IWBA,"[2]; 10 mg/kg p.o., time 270 min",35.2 ± 17.3%
same,IWBA,"[2]; 10 mg/kg p.o., time 300 min",48.2 ± 16.9%
same,IWBA,"[2]; 15 mg/kg p.o., time 30 min",81.4%
same,IWBA,"[2]; 15 mg/kg p.o., time 60 min",97.4%
same,IWBA,"[2]; 15 mg/kg p.o., time 90 min",100.0 ± 0%
same,IWBA,"[2]; 15 mg/kg p.o., time 120 min",100.0 ± 0%
same,IWBA,"[2]; 15 mg/kg p.o., time 150 min",100.0 ± 0%
same,IWBA,"[2]; 15 mg/kg p.o., time 180 min",100.0 ± 0%
same,IWBA,"[2]; 15 mg/kg p.o., time 210 min",93.7%
same,IWBA,"[2]; 15 mg/kg p.o., time 240 min",82.6%
same,IWBA,"[2]; 15 mg/kg p.o., time 270 min",81.0%
same,IWBA,"[2]; 15 mg/kg p.o., time 300 min",69.6%
same,inhibitory effect on fibrinolysis induced by tissue plasminogen activator,[3],only negligible inhibitory effect
same,TT: concentration required to double the clotting time,[4],0.072
same,WBCT: concentration required to double the clotting time,[5],0.32
same,APTT,"[6]; 10 mg/kg p.o., time 0 min",27.7 ± 1.2 s
same,APTT,"[6]; 10 mg/kg p.o., time 30 min",58.9 ± 9.0 s
same,APTT,"[6]; 10 mg/kg p.o., time 60 min",77.6 ± 14.6 s
same,APTT,"[6]; 10 mg/kg p.o., time 90 min",65.1 ± 8.4 s
same,APTT,"[6]; 10 mg/kg p.o., time 120 min",55.1 ± 11.4 s
same,APTT,"[6]; 10 mg/kg p.o., time 150 min",52.1 ± 6.6 s
same,APTT,"[6]; 10 mg/kg p.o., time 180 min",53.8 ± 8.5 s
same,APTT,"[6]; 10 mg/kg p.o., time 210 min",48.6 ± 3.8 s
same,APTT,"[6]; 10 mg/kg p.o., time 240 min",47.7 ± 7.4 s
same,APTT,"[6]; 10 mg/kg p.o., time 270 min",44.4 ± 3.7 s
same,APTT,"[6]; 10 mg/kg p.o., time 300 min",43.7 ± 5.0 s
same,APTT,"[6]; 15 mg/kg p.o., time 0 min",32.6 ± 4.6 s
same,APTT,"[6]; 15 mg/kg p.o., time 30 min",115.0 ± 36.6 s
same,APTT,"[6]; 15 mg/kg p.o., time 60 min",150.4 ± 30.9 s
same,APTT,"[6]; 15 mg/kg p.o., time 90 min",170.3 ± 18.5 s
same,APTT,"[6]; 15 mg/kg p.o., time 120 min",145.6 ± 22.7 s
same,APTT,"[6]; 15 mg/kg p.o., time 150 min",149.2 ± 22.0 s
same,APTT,"[6]; 15 mg/kg p.o., time 180 min",169.0 ± 23.0 s
same,APTT,"[6]; 15 mg/kg p.o., time 210 min",137.7 ± 25.8 s
same,APTT,"[6]; 15 mg/kg p.o., time 240 min",127.4 ± 25.7 s
same,APTT,"[6]; 15 mg/kg p.o., time 270 min",133.4 ± 24.7 s
same,APTT,"[6]; 15 mg/kg p.o., time 300 min",92.8 ± 18.4 s
same,APTT: concentration required to double the clotting time,[7],0.20
same,WBCT,"[8]; 10 mg/kg p.o., time 0 min",13.2 ± 1.1 min
same,WBCT,"[8]; 10 mg/kg p.o., time 30 min",17.7 ± 1.6 min
same,WBCT,"[8]; 10 mg/kg p.o., time 60 min",23.6 ± 1.9 min
same,WBCT,"[8]; 10 mg/kg p.o., time 90 min",21.2 ± 2.9 min
same,WBCT,"[8]; 10 mg/kg p.o., time 120 min",18.8 ± 1.0 min
same,WBCT,"[8]; 10 mg/kg p.o., time 150 min",19.2 ± 1.1 min
same,WBCT,"[8]; 10 mg/kg p.o., time 180 min",18.4 ± 1.5 min
same,WBCT,"[8]; 10 mg/kg p.o., time 210 min",17.2 ± 2.3 min
same,WBCT,"[8]; 10 mg/kg p.o., time 240 min",15.8 ± 1.7 min
same,WBCT,"[8]; 10 mg/kg p.o., time 270 min",16.2 ± 2.1 min
same,WBCT,"[8]; 10 mg/kg p.o., time 300 min",13.5 ± 0.9 min
same,WBCT,"[8]; 15 mg/kg p.o., time 0 min",14.6 ± 0.4 min
same,WBCT,"[8]; 15 mg/kg p.o., time 30 min",24.2 ± 4.7 min
same,WBCT,"[8]; 15 mg/kg p.o., time 60 min",29.4 ± 4.5 min
same,WBCT,"[8]; 15 mg/kg p.o., time 90 min",33.0 ± 5.9 min
same,WBCT,"[8]; 15 mg/kg p.o., time 120 min",34.4 ± 4.4 min
same,WBCT,"[8]; 15 mg/kg p.o., time 150 min",27.2 ± 3.6 min
same,WBCT,"[8]; 15 mg/kg p.o., time 180 min",29.5 ± 2.7 min
same,WBCT,"[8]; 15 mg/kg p.o., time 210 min",34.0 ± 5.9 min
same,WBCT,"[8]; 15 mg/kg p.o., time 240 min",33.7 ± 6.5 min
same,WBCT,"[8]; 15 mg/kg p.o., time 270 min",26.0 ± 1.2 min
same,WBCT,"[8]; 15 mg/kg p.o., time 300 min",23.6 ± 3.3 min
